Experiments:
human recombinant HDAC6 = target: T1, human recombinant HDAC6 (Homo sapiens, UniProt Q9UBN7); assay: HDAC6 enzyme activity inhibition (fluorimetric, in vitro); format: biochemical; conditions: samples at 0.1, 1, 10, 100 and 1000 nM
T1 construct: purchased Calbiochem 382180
T1 sequence (Q9UBN7 1-1215): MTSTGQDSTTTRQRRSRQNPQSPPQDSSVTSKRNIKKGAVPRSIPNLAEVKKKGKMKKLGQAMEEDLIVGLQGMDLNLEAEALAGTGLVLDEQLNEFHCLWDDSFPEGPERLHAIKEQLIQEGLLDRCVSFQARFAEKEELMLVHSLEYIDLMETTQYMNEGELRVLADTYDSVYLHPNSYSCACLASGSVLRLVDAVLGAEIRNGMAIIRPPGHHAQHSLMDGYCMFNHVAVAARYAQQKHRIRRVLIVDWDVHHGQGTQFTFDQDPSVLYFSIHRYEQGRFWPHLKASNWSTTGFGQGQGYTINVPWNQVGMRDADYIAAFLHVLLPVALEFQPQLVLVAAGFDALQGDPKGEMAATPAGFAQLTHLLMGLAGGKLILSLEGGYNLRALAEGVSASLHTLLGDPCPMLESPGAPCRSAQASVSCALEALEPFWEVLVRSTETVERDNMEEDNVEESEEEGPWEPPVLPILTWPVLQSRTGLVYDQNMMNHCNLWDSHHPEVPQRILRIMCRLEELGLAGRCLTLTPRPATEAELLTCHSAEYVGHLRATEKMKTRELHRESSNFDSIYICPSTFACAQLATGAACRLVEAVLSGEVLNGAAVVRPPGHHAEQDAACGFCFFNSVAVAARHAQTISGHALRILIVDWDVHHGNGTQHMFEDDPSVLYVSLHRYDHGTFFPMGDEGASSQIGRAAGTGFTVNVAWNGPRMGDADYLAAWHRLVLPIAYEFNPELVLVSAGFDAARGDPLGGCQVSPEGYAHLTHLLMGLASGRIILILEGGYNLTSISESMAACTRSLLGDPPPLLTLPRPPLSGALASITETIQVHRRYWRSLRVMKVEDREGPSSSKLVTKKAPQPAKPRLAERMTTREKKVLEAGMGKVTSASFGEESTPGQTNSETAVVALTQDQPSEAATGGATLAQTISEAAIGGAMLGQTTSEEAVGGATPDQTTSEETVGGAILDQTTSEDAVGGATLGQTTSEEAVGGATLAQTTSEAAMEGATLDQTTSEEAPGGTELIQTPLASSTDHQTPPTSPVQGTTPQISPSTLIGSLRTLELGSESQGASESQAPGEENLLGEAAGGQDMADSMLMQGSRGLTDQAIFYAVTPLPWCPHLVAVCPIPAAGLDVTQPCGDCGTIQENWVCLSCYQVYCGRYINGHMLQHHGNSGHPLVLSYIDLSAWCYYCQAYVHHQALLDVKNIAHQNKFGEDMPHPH
Description: (§1) A HDAC enzyme inhibitory capacity of a test material was measured by using HDAC1 Fluorimetric Drug Discovery Assay Kit (Enzolifesciences: BML-AK511) and HDAC6 human recombinant (Calbiochem: 382180). For a HDAC1 assay, samples were treated at a concentration of 100, 1000 and 10000 nM. For a HDAC6 assay, samples were treated at a concentration of 0.1, 1, 10, 100 and 1000 nM.
(§2) For the test on the HDAC1 enzyme activity, human recombinant HDAC1 (BML-SE456) was used as a zymogen and Fluor de Lys®-SIRT1 (BNL-KI177) was used as a substrate. A 5-fold dilution of the compound was divided into a 96-well plate, after which 0.3 μg of the enzyme and […] of the substrate were inserted into each well and subjected to reaction at 37° C. for 60 minutes, such that Fluor de Lys® Developer II (BML-K1176) was inserted thereinto and subjected to reaction for 30 minutes and finished. After that, a fluorescence value (Ex 360, Em 460) was measured with a multi-plate reader (FlexStation 3, Molecular Device). An experiment on HDAC6 enzyme was conducted in accordance with the same protocol as in the HDAC1 enzyme activity test method by using human recombinant HDAC6 (382180) of Calbiochem Inc. For final result values, each IC50 value was calculated with GraphPad Prism 4.0 program.

human recombinant HDAC1 = target: T2, human recombinant HDAC1 (Homo sapiens, UniProt Q13547); assay: HDAC1 enzyme activity inhibition (HDAC1 Fluorimetric Drug Discovery Assay Kit, in vitro); format: biochemical; conditions: samples at 100, 1000 and 10000 nM
T2 construct: purchased Enzolifesciences BML-SE456
Description: as §1, §2

T2 sequence (Q13547 whole entry): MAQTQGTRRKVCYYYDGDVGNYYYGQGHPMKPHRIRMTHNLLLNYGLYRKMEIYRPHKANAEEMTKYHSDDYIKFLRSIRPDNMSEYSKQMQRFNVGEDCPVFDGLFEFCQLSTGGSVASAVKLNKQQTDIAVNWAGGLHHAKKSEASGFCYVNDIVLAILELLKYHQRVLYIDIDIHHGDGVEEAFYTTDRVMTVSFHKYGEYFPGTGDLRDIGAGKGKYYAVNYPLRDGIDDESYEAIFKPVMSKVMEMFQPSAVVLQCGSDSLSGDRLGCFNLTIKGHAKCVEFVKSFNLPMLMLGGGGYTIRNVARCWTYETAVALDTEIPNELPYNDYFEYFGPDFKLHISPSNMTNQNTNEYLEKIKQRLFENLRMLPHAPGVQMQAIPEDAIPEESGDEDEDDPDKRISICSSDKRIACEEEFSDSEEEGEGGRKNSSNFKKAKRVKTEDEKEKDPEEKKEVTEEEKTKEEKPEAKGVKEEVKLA

Compound | IC50 (human recombinant HDAC6) [nM] | IC50 (human recombinant HDAC1) [nM]
CS(=N)(=O)C1CN(C(=O)N(Cc2ccc(-c3nnc(C(F)F)o3)cn2)c2cccc(F)c2)C1 (centres unmarked) [Compound 90, N-[[5-[5-(difluoromethyl)-1,3,4-oxadiazol-2-yl]-2-pyridyl]methyl]-N-(3-fluorophenyl)-3-(methylsulfonimidoyl)azetidin-1-carboxamide] | 47.3 | > 10000
N=S1(=O)CCN(c2c(N(Cc3ccc(-c4nnc(C(F)F)o4)cc3F)c3ccccc3)c(=O)c2=O)CC1 [Compound 60, 3-((4-(5-(difluoromethyl)-1,3,4-oxadiazol-2-yl)-2-fluorobenzyl)(phenyl)amino)-4-(1-imino-1-oxidothiomorpholino)cyclobut-3-en-1,2-dione] | 26.7 | > 10000
N=S1(=O)CCN(C(=O)N(Cc2ccc(-c3nnc(C(F)F)o3)cc2F)c2ccccc2F)CC1 [Compound 56, N-(4-(5-(difluoromethyl)-1,3,4-oxadiazol-2-yl)-2-fluorobenzyl)-N-(2-fluorophenyl)-1-iminothiomorpholin-4-carboxamide 1-oxide] | 72.6 | > 10000
N=S1(=O)CCN(C(=O)N(Cc2ccc(-c3nnc(C(F)F)o3)cn2)c2ccc(F)c(F)c2)CC1 [Compound 7, N-((5-(5-(difluoromethyl)-1,3,4-oxadiazol-2-yl)pyridin-2-yl)methyl)-N-(3,4-difluorophenyl)-1-iminothiomorpholin-4-carboxamide 1-oxide] | 40.9 | > 10000
N=S1(=O)C[C@@H]2C[C@H]1CN2C(=O)N(Cc1ccc(-c2nnc(C(F)F)o2)cc1F)c1ccccc1 (stereo partly drawn) [Compound 68, (1S,4S)—N-[[4-[5-(difluoromethyl)-1,3,4-oxadiazol-2-yl]-2-fluoro-phenyl]methyl]-2-imino-2-oxo-N-phenyl-2lambda6-thia-5-azabicyclo[2.2.1]heptan-5-carboxamide] | 39 | > 10000
CC1CN(C(=O)N(Cc2ccc(-c3nnc(C(F)F)o3)cc2F)c2ccc(F)cc2)CC(C)S1(=N)=O (centres unmarked) [Compound 65, N-[[4-[5-(difluoromethyl)-1,3,4-oxadiazol-2-yl]-2-fluoro-phenyl]methyl]-N-(4-fluorophenyl)-1-imino-2,6-dimethyl-1-oxo-1,4-thiazinan-4-carboxamide] | 105 | > 10000
N=S1(=O)CCC(C(=O)N(Cc2ccc(-c3nnc(C(F)F)o3)cc2F)c2ccccc2)CC1 (centres unmarked) [Compound 8, N-(4-(5-(difluoromethyl)-1,3,4-oxadiazol-2-yl)-2-fluorobenzyl)-1-imino-N-phenyltetrahydro-2H-thiopyran-4-carboxamide 1-oxide] | 194 | > 10000
O=C(NC1CCS(=O)(=NC(=O)C(F)(F)F)CC1)N(Cc1ccc(-c2nnc(C(F)F)o2)cc1F)c1ccccc1 (centres unmarked) [Compound 58, N-(4-(3-(4-(5-(difluoromethyl)-1,3,4-oxadiazol-2-yl)-2-fluorobenzyl)-3-phenylureido)-1-oxidotetrahydro-2H-thiopyran-1-yliden)-2,2,2-trifluoroacetamide] | 256 | > 10000
N=S1(=O)CCC(N2C[C@@H]3C[C@H]2CN3C(=O)N(Cc2ccc(-c3nnc(C(F)F)o3)cn2)c2ccccc2F)CC1 (stereo partly drawn) [Compound 48, (1S,4S)—N-((5-(5-(difluoromethyl)-1,3,4-oxadiazol-2-yl)pyridin-2-yl)methyl)-N-(2-fluorophenyl)-5-(1-imino-1-oxidotetrahydro-2H-thiopyran-4-yl)-2,5-diazabicyclo[2.2.1]heptan-2-carboxamide] | 113 | > 10000
N=S1(=O)CCN(S(=O)(=O)N(Cc2ccc(-c3nnc(C(F)F)o3)cc2F)c2ccccc2)CC1 [Compound 18, N-(4-(5-(difluoromethyl)-1,3,4-oxadiazol-2-yl)-2-fluorobenzyl)-1-imino-N-phenylthiomorpholin-4-sulfonamide 1-oxide] | 32.6 | > 10000
N=S1(=O)CCN(S(=O)(=O)N(Cc2ccc(-c3nnc(C(F)F)o3)cn2)c2ccccc2)CC1 [Compound 19, N-((5-(5-(difluoromethyl)-1,3,4-oxadiazol-2-yl)pyridin-2-yl)methyl)-1-imino-N-phenylthiomorpholin-4-sulfonamide 1-oxide] | 19.7 | > 10000
CS(=N)(=O)c1ccc(N(Cc2ccc(-c3nnc(C(F)F)o3)cn2)C(=O)N2CCS(=N)(=O)CC2)cc1 (centres unmarked) [Compound 15, N-((5-(5-(difluoromethyl)-1,3,4-oxadiazol-2-yl)pyridin-2-yl)methyl)-1-imino-N-(4-(S-methylsulfonimidoyl)phenyl)thiomorpholin-4-carboxamide 1-oxide] | 1350 | > 10000
N=S1(=O)CCN(S(=O)(=O)N(Cc2ccc(-c3nnc(C(F)F)o3)cc2F)c2cccc(F)c2)CC1 [Compound 35, N-(4-(5-(difluoromethyl)-1,3,4-oxadiazol-2-yl)-2-fluorobenzyl)-N-(3-fluorophenyl)-1-iminothiomorpholin-4-sulfonamide 1-oxide] | 59.7 | > 10000

More lines, in order of falling IC50 (human recombinant HDAC6), values ahead:

IC50 (human recombinant HDAC6) [nM] | IC50 (human recombinant HDAC1) [nM] | Compound
200 | > 10000 | N=S1(=O)CCN(C(=O)N(Cc2c(F)cc(-c3nnc(C(F)F)o3)cc2F)c2ccccc2F)CC1 [Compound 54, N-(4-(5-(difluoromethyl)-1,3,4-oxadiazol-2-y1)-2,6-difluorobenzyl)-N-(2-fluorophenyl)-1-iminothiomorpholin-4-carboxamide 1-oxide]
185 | > 10000 | N=S1(=O)CCN(C(=O)N(Cc2ccc(-c3nnc(C(F)F)o3)cc2F)c2cccc(-c3cccnc3)c2)CC1 [Compound 47, N-(4-(5-(difluoromethyl)-1,3,4-oxadiazol-2-yl)-2-fluorobenzyl)-1-imino-N-(3-(pyridin-3-yl)phenyl)thiomorpholin-4-carboxamide 1-oxide]
116 | > 10000 | N=S1(=O)CCC(NC(=O)N(Cc2ccc(-c3nnc(C(F)F)o3)cc2F)c2ccccc2)CC1 (centres unmarked) [Compound 59, 1-(4-(5-(difluoromethyl)-1,3,4-oxadiazol-2-yl)-2-fluorobenzyl)-3-(1-imino-1-oxidotetrahydro-2H-thiopyran-4-yl)-1-phenylurea]
88.4 | > 10000 | N=S1(=O)CCN(C(=O)N(Cc2ccc(-c3nnc(C(F)F)o3)cn2)c2ccc(F)cc2)CC1 [Compound 62, N-[[5-[5-(difluoromethyl)-1,3,4-oxadiazol-2-yl]-2-pyridyl]methyl]-N-(4-fluorophenyl)-1-imino-1-oxo-1,4-thiazinan-4-carboxamide]
42.6 | > 10000 | N=S1(=O)CCN(C(=O)N(Cc2ccc(-c3nnc(C(F)F)o3)cn2)c2cccs2)CC1 [Compound 16, N-((5-(5-(difluoromethyl)-1,3,4-oxadiazol-2-yl)pyridin-2-yl)methyl)-1-imino-N-(thiophen-2-yl)thiomorpholin-4-carboxamide 1-oxide]
39.9 | > 10000 | N=S1(=O)CCN(S(=O)(=O)N(Cc2ccc(-c3nnc(C(F)F)o3)cn2)c2ccc(F)cc2)CC1 [Compound 76, N-[[5-[5-(difluoromethyl)-1,3,4-oxadiazol-2-yl]-2-pyridyl]methyl]-N-(4-fluorophenyl)-1-imino-1-oxo-1,4-thiazinan-4-sulfonamide]

Source: patent publication US20260125370A1, “SULFOXIMINE COMPOUNDS AS HISTONE DEACETYLASE 6 INHIBITOR, AND PHARMACEUTICAL COMPOSITION COMPRISING THE SAME” (CHONG KUN DANG PHARMACEUTICAL CORP., priority 2022, published 2026)
